Source: ChEMBL document CHEMBL1201861, “Genomics of Drug Sensitity in Cancer screening data, Wellcome Trust Sanger Institute”

Experiments:
Assay in all cases: cells
Assay type in all cases: functional, cell-based, Homo sapiens
[1] = test system: COLO-829
Description: SANGER: Inhibition of human COLO-829 cell growth in a cell viability assay.

[2] = test system: CP66-MEL;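 also: growth inhibition of CP66-MEL cells determined in a cell viability assay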
Description: SANGER: Inhibition of human CP66-MEL cell growth in a cell viability assay.

[3] = test system: CTV-1;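 also: growth inhibition of the cell line, read out with a cell viability assay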
Description: SANGER: Inhibition of human CTV-1 cell growth in a cell viability assay.

[4] = test system: D283 Med
Description: SANGER: Inhibition of human D-283MED cell growth in a cell viability assay.

[5] = test system: DJM-1;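 also: growth inhibition of human DJM-1 cells, read out by a cell viability assay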
Description: SANGER: Inhibition of human DJM-1 cell growth in a cell viability assay.

[6] = test system: EKVX;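 also: growth inhibition of human EKVX cells, read out with a cell viability assay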
Description: SANGER: Inhibition of human EKVX cell growth in a cell viability assay.

[7] = test system: EW-1;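 also: growth inhibition of the human EW-1 cell line, read out by a cell viability assay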
Description: SANGER: Inhibition of human EW-1 cell growth in a cell viability assay.

[8] = test system: EW-18;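 also: growth inhibition of EW-18 cells, read out by a cell viability assay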
Description: SANGER: Inhibition of human EW-18 cell growth in a cell viability assay.

[9] = test system: GB-1;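 also: growth of GB-1 cells judged by a viability assay, IC50 marks the concentration inhibiting growth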
Description: SANGER: Inhibition of human GB-1 cell growth in a cell viability assay.

[10] = test system: GCIY;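 also: growth inhibition of the human GCIY cell line, read out by a cell viability assay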
Description: SANGER: Inhibition of human GCIY cell growth in a cell viability assay.

[11] = test system: GI-1;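 also: growth inhibition of human GI-1 cells, measured with a cell viability readout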
Description: SANGER: Inhibition of human GI-1 cell growth in a cell viability assay.

[12] = test system: GR-ST
Description: SANGER: Inhibition of human GR-ST cell growth in a cell viability assay.

[13] = test system: HCE-T;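 also: cell viability assay read-out, reporting inhibition of HCE-T cell growth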
Description: SANGER: Inhibition of human HCE-T cell growth in a cell viability assay.

[14] = test system: HT-144
Description: SANGER: Inhibition of human HT-144 cell growth in a cell viability assay.

[15] = test system: JVM-2;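 also: growth inhibition of JVM-2 cells determined by a cell viability assay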
Description: SANGER: Inhibition of human JVM-2 cell growth in a cell viability assay.

[16] = test system: JVM-3;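 also: growth inhibition of human JVM-3 cells, read out with a cell viability assay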
Description: SANGER: Inhibition of human JVM-3 cell growth in a cell viability assay.

[17] = test system: KALS-1;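 also: growth inhibition of KALS-1 cells, determined with a cell viability assay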
Description: SANGER: Inhibition of human KALS-1 cell growth in a cell viability assay.

[18] = test system: KARPAS-299
Description: SANGER: Inhibition of human KARPAS-299 cell growth in a cell viability assay.

[19] = test system: KGN;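 also: growth inhibition of KGN cells, read out with a cell viability assay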
Description: SANGER: Inhibition of human KGN cell growth in a cell viability assay.

[20] = test system: KNS-42;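 also: growth inhibition of KNS-42 cells, read out with a cell viability assay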
Description: SANGER: Inhibition of human KNS-42 cell growth in a cell viability assay.

[21] = test system: KP-N-YS;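 also: cell viability assay measuring inhibition of cell line growth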
Description: SANGER: Inhibition of human KP-N-YS cell growth in a cell viability assay.

[22] = test system: LB2241-RCC;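 also: cell viability assay measuring how strongly the cultured human renal carcinoma line is prevented from growing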
Description: SANGER: Inhibition of human LB2241-RCC cell growth in a cell viability assay.

[23] = test system: LS-1034
Description: SANGER: Inhibition of human LS-1034 cell growth in a cell viability assay.

[24] = test system: LS-513
Description: SANGER: Inhibition of human LS-513 cell growth in a cell viability assay.

[25] = test system: MHH-NB-11;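 also: growth inhibition of human MHH-NB-11 cells, read out by a cell viability assay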
Description: SANGER: Inhibition of human MHH-NB-11 cell growth in a cell viability assay.

[26] = test system: MHH-PREB-1;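 also: cell viability assay measuring inhibition of proliferation of human MHH-PREB-1 cells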
Description: SANGER: Inhibition of human MHH-PREB-1 cell growth in a cell viability assay.

[27] = test system: MMAC-SF;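 also: growth inhibition of human MMAC-SF cells, read out with a cell viability assay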
Description: SANGER: Inhibition of human MMAC-SF cell growth in a cell viability assay.

[28] = test system: MOLT-4;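 also: growth inhibition of MOLT-4 cells, determined with a cell viability readout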
Description: SANGER: Inhibition of human MOLT-4 cell growth in a cell viability assay.

[29] = test system: MSTO-211H
Description: SANGER: Inhibition of human MSTO-211H cell growth in a cell viability assay.

[30] = test system: Mo
Description: SANGER: Inhibition of human Mo-T cell growth in a cell viability assay.

[31] = test system: NB5;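 also: growth inhibition of NB5 cells, read out as cell viability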
Description: SANGER: Inhibition of human NB5 cell growth in a cell viability assay.

[32] = test system: NB69;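 also: growth inhibition of NB69 cells, determined by a cell viability assay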
Description: SANGER: Inhibition of human NB69 cell growth in a cell viability assay.

[33] = test system: NCI-H1304;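 also: growth inhibition of the cancer cell line, measured in a cell viability assay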
Description: SANGER: Inhibition of human NCI-H1304 cell growth in a cell viability assay.

[34] = test system: NCI-H23;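 also: cell viability assay measuring growth inhibition of NCI-H23 cells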
Description: SANGER: Inhibition of human NCI-H23 cell growth in a cell viability assay.

[35] = test system: NCI-H510A;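 also: growth inhibition of NCI-H510A cells, read out with a cell viability assay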
Description: SANGER: Inhibition of human NCI-H510A cell growth in a cell viability assay.

[36] = test system: NCI-H747;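 also: growth inhibition of human NCI-H747 cells, read out by a cell viability assay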
Description: SANGER: Inhibition of human NCI-H747 cell growth in a cell viability assay.

[37] = test system: NTERA-2-cl-D1;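 also: inhibition of cell growth, measured with a cell viability assay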
Description: SANGER: Inhibition of human NTERA-S-cl-D1 cell growth in a cell viability assay.

[38] = test system: OCI-AML2;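 also: growth inhibition of OCI-AML2 cells, read out with a cell viability assay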
Description: SANGER: Inhibition of human OCI-AML2 cell growth in a cell viability assay.

[39] = test system: OS-RC-2;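 also: growth inhibition of human OS-RC-2 cells, measured by a cell viability assay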
Description: SANGER: Inhibition of human OS-RC-2 cell growth in a cell viability assay.

[40] = test system: P30-OHK;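 also: growth inhibition of the P30-OHK cell line, read out with a cell viability assay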
Description: SANGER: Inhibition of human P30-OHK cell growth in a cell viability assay.

[41] = test system: Ramos-2G6-4C10;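 also: growth inhibition of the cell line, measured by a cell viability read-out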
Description: SANGER: Inhibition of human Ramos-2G6-4C10 cell growth in a cell viability assay.

[42] = test system: SCC-15;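 also: growth inhibition of SCC-15 cells, read out with a cell viability assay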
Description: SANGER: Inhibition of human SCC-15 cell growth in a cell viability assay.

[43] = test system: SK-MEL-1;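 also: growth inhibition of human SK-MEL-1 cells, read out by a cell viability assay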
Description: SANGER: Inhibition of human SK-MEL-1 cell growth in a cell viability assay.

[44] = test system: A388;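 also: growth inhibition of human A388 cells, read out with a cell viability assay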
Description: SANGER: Inhibition of human A388 cell growth in a cell viability assay.

[45] = test system: A4-Fuk;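 also: growth inhibition of A4-Fuk cells, read out by a cell viability assay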
Description: SANGER: Inhibition of human A4-Fuk cell growth in a cell viability assay.

[46] = test system: TE-11;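 also: growth inhibition of human TE-11 cells, read out by a cell viability assay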
Description: SANGER: Inhibition of human TE-11 cell growth in a cell viability assay.

[47] = test system: VA-ES-BJ;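 also: growth inhibition of the VA-ES-BJ cell line, read out by a cell viability assay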
Description: SANGER: Inhibition of human VA-ES-BJ cell growth in a cell viability assay.

[48] = test system: no-10;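 also: growth inhibition of no-10 cells, read out with a cell viability assay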
Description: SANGER: Inhibition of human no-10 cell growth in a cell viability assay.

[49] = test system: COLO-320-HSR;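 also: growth inhibition of COLO-320-HSR cells, determined with a cell viability assay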
Description: SANGER: Inhibition of human COLO-320-HSR cell growth in a cell viability assay.

`Cc1cc([N+](=O)[O-])ccc1NS(=O)(=O)c1cc(Cl)ccc1Cl` was tested, and the IC50 ([1]; Homo sapiens, COLO-829) was 0.825 µM, the IC50 ([2]; Homo sapiens, CP66-MEL) was 0.268 µM and the IC50 ([3]; Homo sapiens, CTV-1) was 5.06 µM. For the same compound, the IC50 ([4]; Homo sapiens, D283 Med) was 3.96 µM, the IC50 ([5]; Homo sapiens, DJM-1) was 10.5 µM and the IC50 ([6]; Homo sapiens, EKVX) was 7.56 µM. The IC50 ([7]; Homo sapiens, EW-1) was 15.3 µM, the IC50 ([8]; Homo sapiens, EW-18) was 9.58 µM and the IC50 ([9]; Homo sapiens, GB-1) was 2.19 µM. The IC50 ([10]; Homo sapiens, GCIY) was 2.94 µM, the IC50 ([11]; Homo sapiens, GI-1) was 1.43 µM and the IC50 ([12]; Homo sapiens, GR-ST) was 10.3 µM. The IC50 ([13]; Homo sapiens, HCE-T) was 9.59 µM, the IC50 ([14]; Homo sapiens, HT-144) was 2.94 µM and the IC50 ([15]; Homo sapiens, JVM-2) was > 32 µM. For the same compound, the IC50 ([16]; Homo sapiens, JVM-3) was > 32 µM, the IC50 ([17]; Homo sapiens, KALS-1) was 8.54 µM and the IC50 ([18]; Homo sapiens, KARPAS-299) was > 32 µM. It also gave an IC50 ([19]; Homo sapiens, KGN) of 4.2 µM, an IC50 ([20]; Homo sapiens, KNS-42) of 12.7 µM and an IC50 ([21]; Homo sapiens, KP-N-YS) of 15.9 µM. The IC50 ([22]; Homo sapiens, LB2241-RCC) was 2.61 µM, the IC50 ([23]; Homo sapiens, LS-1034) was 5.55 µM and the IC50 ([24]; Homo sapiens, LS-513) was 14.5 µM. The IC50 ([25]; Homo sapiens, MHH-NB-11) was 20.7 µM, the IC50 ([26]; Homo sapiens, MHH-PREB-1) was 5.95 µM and the IC50 ([27]; Homo sapiens, MMAC-SF) was 3.92 µM. The IC50 ([28]; Homo sapiens, MOLT-4) was > 32 µM, the IC50 ([29]; Homo sapiens, MSTO-211H) was > 32 µM and the IC50 ([30]; Homo sapiens, Mo) was > 32 µM. For the same compound, the IC50 ([31]; Homo sapiens, NB5) was 14.5 µM, the IC50 ([32]; Homo sapiens, NB69) was 31.3 µM and the IC50 ([33]; Homo sapiens, NCI-H1304) was > 32 µM. For the same compound, the IC50 ([34]; Homo sapiens, NCI-H23) was > 32 µM, the IC50 ([35]; Homo sapiens, NCI-H510A) was 20.2 µM and the IC50 ([36]; Homo sapiens, NCI-H747) was 7.48 µM. The IC50 ([37]; Homo sapiens, NTERA-2-cl-D1) was 1.43 µM, the IC50 ([38]; Homo sapiens, OCI-AML2) was 2.52 µM and the IC50 ([39]; Homo sapiens, OS-RC-2) was 6.75 µM. The IC50 ([40]; Homo sapiens, P30-OHK) was > 32 µM, the IC50 ([41]; Homo sapiens, Ramos-2G6-4C10) was 6 µM and the IC50 ([42]; Homo sapiens, SCC-15) was 3.94 µM. For the same compound, the IC50 ([43]; Homo sapiens, SK-MEL-1) was > 32 µM, the IC50 ([44]; Homo sapiens, A388) was 4.93 µM and the IC50 ([45]; Homo sapiens, A4-Fuk) was > 32 µM. The IC50 ([46]; Homo sapiens, TE-11) was > 32 µM, the IC50 ([47]; Homo sapiens, VA-ES-BJ) was 1.23 µM and the IC50 ([48]; Homo sapiens) was > 32 µM. The IC50 ([49]; Homo sapiens, COLO-320-HSR) was 17.6 µM.
BLEOMYCIN showed an IC50 ([1]; colo-829) of 37 µM, an IC50 ([2]; cp66-mel) of 957 µM and an IC50 ([3]; ctv-1) of 4.92 µM. The IC50 ([4]; d283 med) was 3.81 µM, the IC50 ([5]; djm-1) was 1.13 µM and the IC50 ([6]; ekvx) was 413 µM. The IC50 ([7]; ew-1) was 1.82 µM, the IC50 ([8]; ew-18) was 75.8 µM and the IC50 ([9]; gb-1) was 0.39 µM. For the same compound, the IC50 ([10]; gciy) was 12.8 µM, the IC50 ([11]; gi-1) was 1.2 µM and the IC50 ([12]; gr-st) was 23.1 µM. The IC50 ([13]; hce-t) was 2.83 µM, the IC50 ([14]; ht-144) was 0.0551 µM and the IC50 ([15]; jvm-2) was 0.572 µM. For the same compound, the IC50 ([16]; jvm-3) was 429 µM, the IC50 ([17]; kals-1) was 11.7 µM and the IC50 ([18]; karpas-299) was 27.2 µM. For the same compound, the IC50 ([19]; kgn) was 0.00371 µM, the IC50 ([20]; kns-42) was 693 µM and the IC50 ([21]; kp-n-ys) was 30.3 µM. The IC50 ([22]; lb2241-rcc) was 0.738 µM, the IC50 ([23]; ls-1034) was 35.4 µM and the IC50 ([24]; ls-513) was 29 µM. It also gave an IC50 ([25]; mhh-nb-11) of 2.01 µM, an IC50 ([26]; mhh-preb-1) of 836 µM and an IC50 ([27]; mmac-sf) of 21.3 µM. It also gave an IC50 ([28]; molt-4) of 1.77 µM, an IC50 ([29]; msto-211h) of 149 µM and an IC50 ([30]; mo) of 103 µM. The IC50 ([31]; nb5) was 6.72 µM, the IC50 ([32]; nb69) was 0.923 µM and the IC50 ([33]; nci-h1304) was 4.1 µM. It also gave an IC50 ([34]; nci-h23) of 2.47 µM, an IC50 ([35]; nci-h510a) of 1.09 µM and an IC50 ([36]; nci-h747) of 1.21 µM. The IC50 ([37]; ntera-2-cl-d1) was 0.000139 µM, the IC50 ([38]; oci-aml2) was 2.26 µM and the IC50 ([39]; os-rc-2) was 3.02 µM. For the same compound, the IC50 ([40]; p30-ohk) was 7.1 µM, the IC50 ([41]; ramos-2g6-4c10) was 9.88 µM and the IC50 ([42]; scc-15) was 27.6 µM. For the same compound, the IC50 ([43]; sk-mel-1) was 260 µM, the IC50 ([44]; a388) was 0.877 µM and the IC50 ([45]; a4-fuk) was 25.3 µM. For the same compound, the IC50 ([46]; te-11) was 6.08 µM, the IC50 ([47]; va-es-bj) was 0.26 µM and the IC50 [48] was 27.1 µM. It also gave an IC50 ([49]; colo-320-hsr) of 3.43 µM.
